# Results: patent US20080003288A1, “Responsive microgel and methods related thereto” (Supratek Pharma Inc., priority 2002, published 2008)
# Where two headings read alike, the source gives them in different places.
# Assays:
# [1] = Equilibrium loading (uptake) of drugs into microgels; assay type: physicochemical; settings: pH 7.0, PLURONIC-PAA microgels XL = 1 mol %
# Method: A microgel was suspended in Tris buffer (5 mM, pH 7.0) and 50 μL of the suspension (2 mg gel/mL buffer) was equilibrated with 3.0 mM stock solution of a drug (450 μL) for 16 h while shaking 44, 45. Shaking was performed using a KS 10 orbital shaker (BEA-Enprotech Corp., Hyde Park, Mass.) in an environmental chamber at 37° C. […] Deionized water was used as a mobile phase (flow rate, 1 mL/min, injection volume, 25 μL), and detection was carried out at 365 nm 47. […] The U values were measured in triplicate for each drug and for each temperature, pH, and gel, respectively. […] This ensured equilibrium U values. […] The beads were separated into several fractions. […] Then the beads were recovered from the suspension by using a magnet. […] The control fraction of loaded beads was subjected to the extraction without equilibration with the microgel suspension.
# [2] = cited from earlier work; for Charge: valency of cationic weak base, 0 = uncharged
# [3] = Dynamic dialysis without microgels: permeability of the dialysis membrane to free solutes; assay type: physicochemical; settings: through dialysis membrane, no microgel, from mean K and membrane thickness (eqn 3)
# Source text: Drug release from microgels loaded with either DCTAF-labeled PLURONIC® or doxorubicin was studied using the dynamic dialysis technique of Gupta, P. K., et al., J. Pharm. […] A Teflon-made, thermostatted dynamic dialyzer consisted of two chambers, separated by a dialysis membrane (cellulose ester, working area A=0.35 cm^2, molecular weight cut-off 100 kDa, Spectrum Laboratories). […] Concentration of the drug in the receiver solution was monitored online by passing through a thermostatted quartz cuvette (path length 1.0 cm). […] The dialyzer was maintained at 37° C. by submersion in a water bath. The flow rate through the receiver chamber was maintained at 1.5 mL/min. […] The total volume of the receiver solution (Vr), including the chamber, cuvette, and 0.093″ tubing, was 98 mL in all experiments.
# Permeability of the dialysis membrane was determined by loading a certain amount (qf^0) of either doxorubicin or PLURONIC® solution into the feed chamber and measuring the kinetics of release. […] The membrane thickness (δ) was measured microscopically in the receiver solution upon completion of the dialysis experiment and was typically in the order of 100 μm. […]
# In the control experiments, we measured permeability of the dialysis membrane for doxorubicin and PLURONIC® L61 without loading into microgels. […]
# [4] = Transepithelial transport of doxorubicin across Caco-2 monolayers; assay type: in vitro ADME; settings: human
# Method: (§1) The drug-containing samples for the transport experiments were prepared as follows. […] The suspension was centrifuged at 8000×g for 0.5 h and the supernatant was removed. The pellet was weighed and resuspended in fresh portion of serum-free DMEM of a known weight. Known amount of doxorubicin and Pluronic were dissolved in the suspension, which was allowed to equilibrate at 37° C. overnight, then snap-frozen and lyophilized. The powders were kept at −70° C. Before the transport experiments, a known amount of powder was reconstituted in DMEM and was allowed to equilibrate at 37° C. overnight.
# (§2) Cells were seeded at a density of (2-4)×10^4 cells/cm^2 on top of Transwell™ polycarbonate filters (pore size, 0.4 μm; diameter, 24.5 mm; growth area, 4.71 cm^2) from Costar (Cambridge, Mass.). The cells were grown for 3 weeks prior to the transport experiments and trans-epithelial electrical resistance (TEER) was measured using a Millicell-ERS device (Millipore, Bedford, Mass.) equipped with rod-shaped electrodes. The TEER data were corrected for background readings contributed by the blank filter and culture medium. […] Then the monolayers were rinsed twice by serum-free DMEM and the transport experiment commenced by replacing the medium at either the basolateral or the apical side of the monolayer with 2.5 mL of the serum-free DMEM containing doxorubicin (with or without microgels, see Table 3). Simultaneously, the medium on the other side was refreshed. The monolayers were incubated at 37° C. in 10% CO2 atmosphere. Samples of 200 μL were taken from each side intermittently, and the drug concentration was measured in the samples withdrawn from the side opposite to the side of the drug application. The volumes withdrawn were immediately replaced with equal volumes of serum-free DMEM pre-equilibrated at 37° C. Each experiment was repeated four times. […] Additionally, the concentration of doxorubicin in the medium was measured by HPLC using a Capcell Pak UG C18 (100×4.6 mm I.D., particle size 5 μm) column and a Universal Guard Cartridge System (Phenomenex, Torrance, Calif.). […] Water/acetonitrile (70/30, pH 4) was used as the mobile phase (flow rate, 1 mL/min, injection volume, 5 μL), and detection was carried out using an Argon Ion laser (488 nm, 10 mW). […] Temperature was controlled to ±0.05 C using a circulating water bath. The platinum Wilhelmy plate was washed with acetone, rinsed in Milli-Q water, and flamed until red-hot before each measurement.
# (§3) The apparent permeability of the Caco-2 monolayer (Pa, cm/s) was calculated from the linearized time course of the doxorubicin fractional transport (dI1t/dt in the fluorescence assay and dCt/dt in the HPLC assay) normalized to the effective surface area of the filter (A=4.71 cm^2) and the initial fluorescence emission intensity reading (Io) or initial doxorubicin concentration (Co) in the donor (basolateral or apical) compartment of volume V=2.5 cm^3: [formula]
# Caco-2 monolayers = assay: as above; assay type: in vitro ADME; settings: doxorubicin 3 μM in donor, no further additive in DMEM
# Method: as §1, §2, §3
Compound,Uptake ± SD ([1]; 20° C.),Uptake ± SD ([1]; 37° C.),Log P (n-octanol-to-water partition coefficient) [2],Charge [2],effective diffusion coefficient (D) [3],"Papp A→B at 3 μM ([4]; Caco-2, doxorubicin 3 μM in donor, no further additive in DMEM, read-out: Pa, a→b, HPLC assay) [×10⁻⁶ cm/s]","Papp B→A at 3 µM ([4]; Caco-2, doxorubicin 3 μM in donor, no further additive in DMEM, read-out: apparent permeability, b→a, HPLC assay) [×10⁻⁶ cm/s]","Papp B→A at 3 µM ([4]; Caco-2, doxorubicin 3 μM in donor, no further additive in DMEM, read-out: apparent permeability, b→a, fluorescence assay) [×10⁻⁶ cm/s]","efflux ratio ([4]; Caco-2, no additives, read-out: active efflux exceeding the passive influx)","Pa, a→b, fluorescence assay (Caco-2 monolayers)"
COc1cccc2c1C(=O)c1c(O)c3c(c(O)c1C2=O)C[C@@](O)(C(=O)CO)C[C@@H]3O[C@H]1C[C@H](N)[C@H](O)[C@H](C)O1 [Doxorubicin],2.97 ± 0.33 (20° C.) mmol/g,2.26 ± 0.37 (37° C.) mmol/g,1.85,1,2.4×10^−5 cm^2/s,0.579,2.75,2.81,4.6,(6.07±0.04)×10^−7 cm/s
CO[C@@]12[C@H](COC(N)=O)C3=C(C(=O)C(C)=C(N)C3=O)N1C[C@@H]1N[C@@H]12 [Mitomycin C],–,5.31 ± 1.86 (37° C.) mmol/g,–,3,–,–,–,–,–,–
O=C1c2c(O)ccc(O)c2C(=O)c2c(NCCNCCO)ccc(NCCNCCO)c21 [Mitoxantrone],–,3.70 ± 0.56 (37° C.) mmol/g,–,–,–,–,–,–,–,–
